The results in this text go back to ChEMBL document CHEMBL5154845, “Dual-acting antitumor agents targeting the A2A adenosine receptor and histone deacetylases: Design and synthesis of 4-(furan-2-yl)-1H-pyrazolo[3,4-d]pyrimidin-6-amine derivatives” (Eur J Med Chem, 2022).

Experiment [1] deals with Adenosine receptor A2a (Homo sapiens, UniProt P29274). Nature of the experiment: Displacement of [3H][…] from human A2AAR incubated for 60 mins by scintillation counter analysis.
The target of experiment [2] is Histone deacetylase 1 (Homo sapiens, UniProt Q13547). Nature of the experiment: Inhibition of HDAC1 (unknown origin) using trypsin and LGK(Ac)-AMC as substrates incubated for 1 hr and measured by fluorescence assay.
Histone deacetylase 1, sequence (Q13547 whole entry): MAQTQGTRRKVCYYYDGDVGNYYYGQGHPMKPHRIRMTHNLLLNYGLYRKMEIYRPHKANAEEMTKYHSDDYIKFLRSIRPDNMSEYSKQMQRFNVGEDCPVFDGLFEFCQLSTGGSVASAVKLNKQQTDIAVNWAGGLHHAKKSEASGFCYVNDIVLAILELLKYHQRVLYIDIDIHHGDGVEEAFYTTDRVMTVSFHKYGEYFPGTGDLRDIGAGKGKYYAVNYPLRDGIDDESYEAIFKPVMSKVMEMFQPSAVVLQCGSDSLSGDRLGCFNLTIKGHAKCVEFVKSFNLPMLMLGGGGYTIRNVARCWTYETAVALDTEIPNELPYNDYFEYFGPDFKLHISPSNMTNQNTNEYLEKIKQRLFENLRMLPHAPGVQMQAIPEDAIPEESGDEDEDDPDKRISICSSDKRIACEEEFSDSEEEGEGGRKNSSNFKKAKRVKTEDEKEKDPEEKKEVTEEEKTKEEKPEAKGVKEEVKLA

The term Ki denotes a dissociation constant, usually derived from enzyme kinetics or from competition with a known ligand. As usually defined, the IC50 is the concentration that gives 50% inhibition. Lower therefore signals greater potency in that assay.

Each structure is given as a SMILES string.

Adenosine receptor A2a, sequence (P29274 whole entry): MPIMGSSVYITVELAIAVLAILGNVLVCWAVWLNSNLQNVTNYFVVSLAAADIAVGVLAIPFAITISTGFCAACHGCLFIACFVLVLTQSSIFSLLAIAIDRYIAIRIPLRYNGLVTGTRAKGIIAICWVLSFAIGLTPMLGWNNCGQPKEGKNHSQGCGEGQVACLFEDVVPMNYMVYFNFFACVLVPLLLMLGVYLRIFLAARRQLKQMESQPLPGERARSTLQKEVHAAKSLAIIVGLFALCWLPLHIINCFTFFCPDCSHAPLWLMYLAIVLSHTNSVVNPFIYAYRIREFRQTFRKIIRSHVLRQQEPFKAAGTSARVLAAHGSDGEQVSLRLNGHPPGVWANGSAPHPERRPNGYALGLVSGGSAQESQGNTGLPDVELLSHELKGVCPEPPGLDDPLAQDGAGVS

Take `Nc1nc(-c2ccco2)c2cnn(Cc3ccc(/C=C/C(=O)NO)cc3)c2n1`: the inhibition constant Ki in experiment [1] stood at 3.59 µM. Also, the midpoint of inhibition in experiment [2], the IC50, lay at 0.0071 µM.
In experiment [1], `Nc1nc(-c2ccco2)c2cnn(Cc3cccc(OCCCCC(=O)NO)c3)c2n1` showed a Ki of 0.0073 µM. In experiment [2], the IC50 was 0.151 µM.
Take `Cc1ccc(-c2nc(N)nc3c2cnn3Cc2cccc(OCCCCC(=O)NO)c2)o1`: in experiment [1], the inhibitory constant (Ki) was found to be 0.0259 µM. Inhibition in experiment [2] was half-maximal at 0.206 µM (IC50).
In experiment [1], `Nc1nc(-c2ccco2)c2cnn(CCCCCC(=O)NO)c2n1` had a Ki of 0.777 µM. The 50% inhibitory concentration (IC50) in experiment [2] stood at 0.0093 µM.
For `Cc1ccc(-c2nc(N)nc3c2cnn3CCCCCCCC(=O)NO)o1`, affinity in experiment [1] was put at a Ki of 0.585 µM. Besides, the IC50 in experiment [2] worked out at 0.0072 µM.
Consider `Nc1nc(-c2ccco2)c2cnn(Cc3ccc(/C=C/C(=O)Nc4ccccc4N)cc3)c2n1`, for which, in experiment [1], the Ki was greater than 10 µM. In experiment [2], this molecule came in with an IC50 of 0.116 µM.
Take `Nc1nc(-c2ccco2)c2cnn(CCCc3ccc(C(=O)NO)cc3)c2n1`: the Ki in experiment [1] was 0.863 µM. The same molecule registered an IC50 in experiment [2] of 0.0645 µM.
Regarding `Nc1nc(-c2ccco2)c2cnn(Cc3ccc(C(=O)Nc4ccccc4N)cc3)c2n1`, in experiment [1], the Ki turned out to be 1.72 µM. This molecule came in with an IC50 in experiment [2] of 0.0175 µM.
As for `Cc1ccc(-c2nc(N)nc3c2cnn3CCCOc2ccc(C(=O)Nc3ccccc3N)cc2)o1`, the inhibition constant Ki in experiment [1] came out at 0.107 µM. The molecule also had a 50% inhibitory concentration (IC50) in experiment [2] of 0.226 µM.
As to `Nc1nc(-c2ccco2)c2cnn(Cc3cccc(OCCCCCC(=O)NO)n3)c2n1`, the Ki in experiment [1] came to 0.0683 µM. The IC50 in experiment [2] was 0.192 µM.
As to `Nc1nc(-c2ccco2)c2cnn(Cc3ccc(C(=O)NO)cc3)c2n1`, in experiment [1], the inhibition constant (Ki) amounted to 0.863 µM. This molecule yielded a 50% inhibitory concentration (IC50) in experiment [2] of 0.0128 µM.
The corresponding values for `Cc1ccc(-c2nc(N)nc3c2cnn3Cc2ccc(C(=O)NO)cc2)o1` are 2.54 µM and 0.014 µM.
Turning to `Cc1ccc(-c2nc(N)nc3c2cnn3Cc2ccc(C(=O)Nc3ccccc3N)cc2)o1`, the inhibition constant Ki in experiment [1] was greater than 10 µM. Besides, in experiment [2], the IC50 was 0.045 µM.
Turning to `Nc1nc(-c2ccco2)c2cnn(Cc3cccc(/C=C/C(=O)Nc4ccccc4N)c3)c2n1`, in experiment [1], the inhibition constant Ki is 0.0358 µM. Half-maximal inhibition in experiment [2] (IC50) was put at 1.18 µM.
Molecule `Nc1nc(-c2ccco2)c2cnn(CCc3ccc(C(=O)NO)cc3)c2n1` had an inhibition constant (Ki) in experiment [1] of 0.436 µM. In experiment [2], the midpoint of inhibition, the IC50, lay at 0.126 µM.
Molecule `Cc1ccc(-c2nc(N)nc3c2cnn3Cc2cccc(OCCCCCC(=O)NO)n2)o1` had a Ki in experiment [1] of 0.0728 µM. Also, the IC50 in experiment [2] is 0.21 µM.
`Nc1nc(-c2ccco2)c2cnn(CCOc3ccc(C(=O)Nc4ccccc4N)cc3)c2n1`: the affinity in experiment [1], expressed as Ki, was 0.974 µM. The molecule also showed a half-maximal inhibitory concentration (IC50) in experiment [2] of 0.105 µM.
The corresponding values for `Nc1nc(-c2ccco2)c2cnn(CCCCC(=O)NO)c2n1` are 1.56 µM and 0.394 µM.
As to `Cc1ccc(-c2nc(N)nc3c2cnn3CCCCC(=O)NO)o1`, the Ki in experiment [1] is 1.83 µM. Also, the IC50 in experiment [2] was found to be 0.228 µM.
In experiment [1], `Nc1nc(-c2ccco2)c2cnn(Cc3cccc(OCCCCC(=O)NO)n3)c2n1` displayed a Ki of 0.0507 µM. Besides, in experiment [2], 0.42 µM corresponded to half-maximal inhibition (IC50).
In experiment [1], `Cc1ccc(-c2nc(N)nc3c2cnn3CCCCCCC(=O)NO)o1` showed a Ki of 0.334 µM. The IC50 in experiment [2] was found to be 0.0022 µM.
Regarding `Cc1ccc(-c2nc(N)nc3c2cnn3CCCCCC(=O)NO)o1`, the affinity in experiment [1] corresponds to a Ki of 0.617 µM. This molecule also returned an IC50 in experiment [2] of 0.0073 µM.
Regarding `Nc1nc(-c2ccco2)c2cnn(CCOc3ccc(C(=O)NO)cc3)c2n1`, the inhibition constant (Ki) in experiment [1] is greater than 10 µM. The IC50 in experiment [2] turned out to be 0.0111 µM.
In experiment [1], `Nc1nc(-c2ccco2)c2cnn(CCCCCCCC(=O)NO)c2n1` displayed an inhibition constant (Ki) of 0.276 µM. In experiment [2], this molecule registered an IC50 of 0.0093 µM.
The corresponding values for `Cc1ccc(-c2nc(N)nc3c2cnn3Cc2cccc(OCCCCC(=O)NO)n2)o1` are 0.072 µM and 0.573 µM.
On to `Cc1ccc(-c2nc(N)nc3c2cnn3Cc2cccc(/C=C/C(=O)NO)c2)o1`, for which the Ki in experiment [1] was 0.378 µM. Moreover, in experiment [2], the concentration for half-maximal inhibition (IC50) stood at 0.0145 µM.
Take `Cc1ccc(-c2nc(N)nc3c2cnn3Cc2cccc(/C=C/C(=O)Nc3ccccc3N)c2)o1`: in experiment [1], the inhibition constant Ki stood at 0.025 µM. In addition, in experiment [2], half-maximal inhibition (IC50) was put at 2.53 µM.
The matching figures for `Cc1ccc(-c2nc(N)nc3c2cnn3CCc2ccc(C(=O)NO)cc2)o1`: 0.295 µM and 0.0735 µM.
